Assay results published in US12343403B2, “Targeted ligand-payload based drug delivery for cell therapy” (Purdue Research Foundation, priority 2017, dated 2025).
“Also recorded” adds a separate entry of the source.

Key:
[1] = test system: 4M5.3FR+ population in a mixed human T cell culture; experiment: Killing of 4M5.3FR+ population in a mixed human T cell culture; assay type: cell-based
[2] = test system: 4M5.3FR+ human T cells; experiment: Cell viability assay, 4M5.3FR+ human T cells; assay type: cell-based
[3] = test system: FMC63+4M5.3FR+hT cell towards Raji cell; experiment: CAR T cell lysis effect, FMC63+4M5.3FR+ hT cell towards Raji cell; assay type: cell-based, human
Procedure: 1×10^5 CAR T and certain number of Raji cell were co-incubated in 96 well plate, according to the E:T ratio, with or without the treatment drug. After 24 h, 100 ul supernatant were taken out for LDH assay. Lysis percentage were calculated as (treatment group-CAR T only)/(maximum lysis-CAR T only) %

[4] = target: T1, FKBPFR3GS fusion receptor (Homo sapiens, UniProt P62942); experiment: Binding assay of ligand-dye on FKBPFR3GS (FF3) fusion receptor stably expressed on human T cell, flow cytometry
T1 construct: human FRa signal peptide (1-24 aa of human FRa) (N); expressed in transfected cells; host or cells: human T cells / Jurkat T cells, lentiviral transduction
T1 sequence (P62942 with tags, fused parts or gaps): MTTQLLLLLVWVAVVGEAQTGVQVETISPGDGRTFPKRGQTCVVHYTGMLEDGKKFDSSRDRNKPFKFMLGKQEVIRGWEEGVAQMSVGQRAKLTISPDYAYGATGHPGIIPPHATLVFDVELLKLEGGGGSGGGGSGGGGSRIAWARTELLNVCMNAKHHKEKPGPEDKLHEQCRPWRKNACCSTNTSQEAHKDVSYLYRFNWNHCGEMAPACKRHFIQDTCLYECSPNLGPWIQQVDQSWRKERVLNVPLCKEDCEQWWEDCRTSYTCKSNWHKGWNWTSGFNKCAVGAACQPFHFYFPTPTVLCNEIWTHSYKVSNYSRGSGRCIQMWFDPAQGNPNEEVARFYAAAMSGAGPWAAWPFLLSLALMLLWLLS
Procedure: For binding assay, cells were incubated with ligand-dye alone or with ligand-dye and free ligands (100×, preincubated for 30 min) for 30 min, at 4 degree. Cells were washed 3 times after incubation, and re-suspended in 2% FBS PBS, 7-AAD were added to gate out the dead cells. […] FRET is visualized by the loss of intensity of FA-Rhodamine as its energy transferred to FA-OTL38 on the same or nearby receptor, detected by BD Fortessa flow cytometer. Results were analyzed using Flow Jo software.
For binding assay, cells were incubated with ligand-dye alone or with ligand-dye and free ligands (100×, preincubated for 30 min) for 30 min, at 4 degree. Cells were washed 3 times after incubation, and re-suspended in 2% FBS PBS, 7-AAD were added to gate out the dead cells. BD Fortessa flow cytometer were used. Results were analyzed using FlowJo software.

[5] = target: T2, FKBP51 (Homo sapiens, UniProt Q13451); conditions: read-out: KD FK506; cited from earlier work
T2 sequence (Q13451 1-457): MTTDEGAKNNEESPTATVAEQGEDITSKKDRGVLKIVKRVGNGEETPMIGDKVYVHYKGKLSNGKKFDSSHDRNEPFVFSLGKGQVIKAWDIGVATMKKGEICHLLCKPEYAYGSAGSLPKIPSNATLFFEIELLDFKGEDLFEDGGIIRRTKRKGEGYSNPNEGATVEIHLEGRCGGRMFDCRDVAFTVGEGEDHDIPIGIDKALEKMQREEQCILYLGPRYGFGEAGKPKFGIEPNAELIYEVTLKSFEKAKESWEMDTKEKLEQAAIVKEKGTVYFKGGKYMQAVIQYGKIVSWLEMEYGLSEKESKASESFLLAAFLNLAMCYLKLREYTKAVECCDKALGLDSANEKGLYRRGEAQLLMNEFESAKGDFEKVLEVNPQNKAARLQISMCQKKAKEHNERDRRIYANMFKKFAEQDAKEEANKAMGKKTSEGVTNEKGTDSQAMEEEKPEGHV

[6] = target: T3, FKBPFR1GS fusion receptor (Homo sapiens, UniProt P62942); experiment: Interference/FRET binding assay in FKBPFR1GS (FF1) fusion receptor Jurkat cells
T3 construct: human FRa signal peptide (1-24 aa of human FRa) (N); expressed in transfected cells; host or cells: Jurkat cells, lentiviral transduction
T3 sequence (P62942 with tags, fused parts or gaps): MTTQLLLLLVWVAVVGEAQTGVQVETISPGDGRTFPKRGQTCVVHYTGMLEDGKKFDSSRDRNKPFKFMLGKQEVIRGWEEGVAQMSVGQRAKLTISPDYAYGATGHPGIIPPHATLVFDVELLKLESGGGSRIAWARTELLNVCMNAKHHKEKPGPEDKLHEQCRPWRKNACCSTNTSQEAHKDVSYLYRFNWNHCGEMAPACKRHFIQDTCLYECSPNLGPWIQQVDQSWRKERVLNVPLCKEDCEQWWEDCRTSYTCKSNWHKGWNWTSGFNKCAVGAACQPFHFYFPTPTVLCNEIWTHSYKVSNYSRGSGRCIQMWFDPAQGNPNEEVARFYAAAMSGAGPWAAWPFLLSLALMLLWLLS
Procedure: Cells were washed 3 times after incubation, and re-suspended in 2% FBS PBS, 7-AAD were added to gate out the dead cells. […] Results were analyzed using Flow Jo software. […]

[7] = test system: FF3+ human T cell; conditions: 100× preincubation with FA
Procedure: Cells were seeded to 96 well plate and incubated with different concentration of certain ligand-cytotoxic drug for 2 h, with or without 100× preincubation of the free ligand competition. After 2 h incubation, cells were washed by warm medium 3 times and replenished with fresh medium. After 72 h, cell number were tested by CellTiter-Glo® assay (G7570, Promega) or quantified by ligand-dye staining of receptor positive cell.

[8] = scFv against FITC; cited from earlier work

COc1cc2cc(c1Cl)N(C)C(=O)C[C@H](OC(=O)[C@H](C)N(C)C(=O)CCC(C)(C)SSCCNC(=S)Nc1cccc3c1C(=O)OC31c3ccc(O)cc3Oc3cc(O)ccc31)C1(C)O[C@H]1[C@H](C)C1CC(O)(NC(=O)O1)[C@H](OC)/C=C\C=C(\C)C2 (stereo partly drawn) [FITC-DM4]
killing of 4M5.3FR+ population in mixed human T cell culture ([1]; 4M5.3FR+ cells, increasing concentration): specifically kill the 4M5.3FR+ population
killing of 4M5.3FR- cells in mixed human T cell culture ([1]; 4M5.3FR- cells, high concentration, bystander effect): killed also through released drugs and bystander effect at high concentration
killing of 4M5.3FR+ human T cells ([2]; 2 h incubation, read after 72 h): specifically kill

Cc1nc(Nc2ncc(C(=O)Cc3c(C)cccc3Cl)s2)cc(N2CCN(CCOC(=O)OCCSSCCNC(=S)Nc3ccc4c(c3)C(=O)OC43c4ccc(O)cc4Oc4cc(O)ccc43)CC2)n1 [FITC-Dasatinib]
lysis effect of FMC63+4M5.3FR+ hT cell towards Raji cell [3]: decrease the lysis effect

CO[C@H]1C[C@@H](C)[C@@]2(O)O[C@H]1[C@H](OC)C[C@H](C)C/C(C)=C\[C@H](C/C=C/c1ccc(C(=O)NCCCOCCOCCOCCCNC(=O)c3ccc(-c4c5ccc(=[N+](C)C)cc-5oc5cc(N(C)C)ccc45)c(C(=O)O)c3)cc1)C(=O)C[C@H](O)[C@@H](C)[C@@H](/C(C)=C/[C@@H]1CC[C@@H](O)[C@H](OC)C1)CC(=O)C1CCCCN1C(=O)C2=O (stereo partly drawn) [FK506-Rhodamine]
binding of FK506-Rhodamine in the presence of FA ([4]; FF3 (3GS linker) compared to FF1, 10 nM FA): preserves the binding

C=CC[C@@H]1/C=C(\C)C[C@H](C)C[C@H](OC)[C@H]2O[C@@](O)(C(=O)C(=O)N3CCCC[C@H]3C(=O)O[C@H](/C(C)=C/[C@@H]3CC[C@@H](O)[C@H](OC)C3)[C@H](C)[C@@H](O)CC1=O)[C@H](C)C[C@@H]2OC [FK506]
Kd [5]: ~104 nM

Nc1nc(=O)c2nc(CNc3ccc(C(=O)N[C@@H](CCC(=O)O)C(=O)O)cc3)cnc2[nH]1 [Folate acid]
concentration at which Folate acid totally abolishes FK506-Rhodamine binding ([6]; FKBPFR1GS fusion protein): 50 nM
concentration at which Folate acid blocks the binding of FK506-Rhodamine ([6]; FKBPFR1GS fusion protein, lowest blocking concentration): ≥ 10 pM
competition of FA-Tubulysin killing effect by FA [7]: blocks the effect

COc1ccc(CCC(OC(=O)C2CCCCN2C(=O)C(=O)C(C)(C)C)c2cccc(NC(=O)CCC(=O)NCCOCCOCCOCCNC(=S)Nc3ccc(-c4c5ccc(=O)cc-5oc5cc(O)ccc45)c(C(=O)O)c3)c2)cc1OC (stereo not drawn) [SLF-FITC]
Kd ([4]; FKBPFR3GS fusion receptor stably expressed on human T cell, 30 min, 4 degree): 62 nM

CCC(C)(C)C(=O)C(=O)N1CCCC[C@H]1C(=O)O[C@H](CCc1ccc(OC)c(OC)c1)c1cccc(OCC(=O)O)c1 [SLF]
times lower binding affinity to FKBPFR fusion receptor compared to parent ligand FK506 ([4]; SLF vs FK506): 10 times
competition of SLF-FITC binding by free SLF ([4]; free SLF 100×, preincubation): blocks SLF-FITC binding; also recorded: blocks this binding

FITC sodium
competition of receptor mediated killing effect by free FITC sodium ([2]; 100× preincubation): blocks the receptor mediated killing effect

OTL38
FRET: FK506-Rhodamine intensity after binding to OTL38 ([6]; FKBPFR1GS jurkat cell, FK506-Rhodamine donor, OTL38 acceptor): decreased FK506-Rhodamine intensity

B1: 4M5.3: scFv against FITC, SEQ ID NO:19 (protein)
scFv: DVVMTQTPLSLPVSLGDQASISCRSSQSLVHSNGNTYLRWYLQKPGQSPKVLIYKVSNRVSGVPDRFSGSGSGTDFTLKINRVEAEDLGVYFCSQSTHVPWTFGGGTKLEIKSSADDAKKDAAKKDDAKKDDAKKDGGVKLDETGGGLVQPGGAMKLSCVTSGFTFGHYWMNWVRQSPEKGLEWVAQFRNKPYNYETYYSDSVKGRFTISRDDSKSSVYLQMNNLRVEDTGIYYCTGASYGMEYLGQGTSVTVSS
modifications: A synthetic scFv against FITC 4M5.3(Kd = 200pM)
Kd [8]: 0.2 nM
